Results from patent US20220007646A1, “METHOD TO CONTROL A PHYTHOPATOGENIC FUNGI SELECTED FROM UNCINULA NECATOR, PLASMOPARA VITICOLA AND GLOEOSPORIUM AMPELOPHAGUM IN GRAPES BY COMPOSITIONS COMPRISING MEFENTRIFLUCONAZOLE” (BASF AGRO B.V., priority 2018, published 2022).

Columns and labels:
[1] = system: Uncinula necator; assay: Green house: control of powdery mildew on grape caused by Uncinula necator (UNCINE P7); type: in vivo; details: grape plants sprayed, inoculated 7 days later, assessed after 22 days
Experimental: Control of Powdery Mildew on Grape Caused by Uncinula necator ([…]7) Grape cuttings were grown in pots to the 4 to 5 leaf stage. These plants were sprayed to run-off with a spray solution, containing the concentration of active ingredient or their mixture mentioned in the table below. Seven days later the treated plants were inoculated with spores of Uncinula necator by shaking heavily infested stock plants over the treated pots. After cultivation in the greenhouse for 22 days at 21-23° C. and a relative humidity between 40 to 70% the extent of fungal attack on the leaves was visually assessed as % diseased leaf area. The disease ratings were converted into efficacies. […] The expected efficacies of active compound mixtures were determined using Colby's formula [R. S. Colby, “Calculating synergistic and antagonistic responses of herbicide combinations”, Weeds 15, 20-22 (1967)] and compared with the observed efficacies.

[2] = system: Plasmopara viticola; assay: Green house: fungicidal control of grape downy mildew caused by Plasmopara viticola (PLASVI P4); type: in vivo; details: grape plants sprayed, inoculated after four days
Experimental: Fungicidal Control of Grape Downy Mildew Caused by Plasmopara viticola […]4) Grape cuttings were grown in pots to the 4 to 5 leaf stage. These plants were sprayed to run-off with a spray solution, containing the concentration of active ingredient or their mixture mentioned in the table below. The plants were allowed to air-dry and cultivated in a greenhouse for four days. Then they were inoculated with an aqueous spore suspension of Plasmopara viticola by spraying it at the lower leaf-side. Then the trial plants were immediately transferred for 24 h to a humid chamber with 22-24° C. and a and a saturated relative humidity. For a period of 5 days, cultivation followed in a greenhouse at 20-25° C. and a relative humidity about 50-80%. To stimulate the outbreak of the disease symptoms, the plants were transferred to a humid chamber again for 24 hours. Then the extent of fungal attack on the lower leaf surface was visually assessed as % diseased leaf area. The disease ratings were converted into efficacies. […] The expected efficacies of active compound mixtures were determined using Colby's formula [R. S. Colby, “Calculating synergistic and antagonistic responses of herbicide combinations”, Weeds 15, 20-22 (1967)] and compared with the observed efficacies.

[3] = application rate 5 g/ha, 0 = as untreated, 100 = not infected

`CC(O)(Cn1cncn1)c1ccc(Oc2ccc(Cl)cc2)cc1C(F)(F)F` (centres unmarked) [I, mefentrifluconazole] gave an Observed efficacy [1, 3] of 72, an Observed efficacy ([2]; application rate 1 g/ha) of 2 and an Observed efficacy [2, 3] of 1.

`Cn1cc(C(=O)Nc2ccccc2-c2cc(F)c(F)c(F)c2)c(C(F)F)n1` [II-6, fluxapyroxad] was tested, and the Observed efficacy ([1]; application rate 0.5 g/ha) was 52.

`Cc1cc(C(F)(F)F)nn1CC(=O)N1CCC(c2nc(C3=NOC(c4c(F)cccc4F)C3)cs2)CC1` (centres unmarked) [II-9, oxathiapiprolin] gave an Observed efficacy ([2]; application rate 0.1 g/ha) of 18.
